pEC50, pKd: −log10 of the molar value. Entries after “also recorded” stand apart in the source; their conditions may differ.
Assays:
FKBP12 [1] = target: T1, FKBP12 (Homo sapiens, UniProt P62942); assay: Spectral shift target engagement assay, binary binding to FKBP12; conditions: 40 nM FKBP12-NTA; KC,1 = EC50 − [Ctot]/2
Description: (§1) Our method of choice is the spectral shift method, which monitors binding events on the target isothermally and in equilibrium via an environment-sensitive near-infrared fluorophore. In the case of target engagement, either the proximity of the ligand towards the dye or structural changes occurring in the target as a result of binding lead to a change in the chemical environment of the fluorophore. Those changes affect the physiochemical properties of the reporter fluorophore and translate into either blue or red shifts (or peak broadening) of emission peaks upon ligand binding, which can be sensitively monitored by simultaneously recording the fluorescence at two wavelengths (i.e., at 650 nm and 670 nm). Calculating the ratio between the two fluorescence channels then allows to monitor subtle emission shifts that occur as a result of target engagement. Affinity measurements can then be performed by recording the spectral shift as a function of ligand concentration.
(§2) Binding studies through FKBP12: To monitor the binding of R,--SLF-11 by the stronger binding FKBP12 in the absence and in the presence of 10 μM MAPRE1 via %Cbound, binary and %Cbound, ternary, respectively, the concentration of reversibly NTA-labeled FKBP12 was limited to [Ctot] = 40 nM. […] In contrast to the experimental setup in the previous two binding experiments with monitoring through the weaker binding protein MAPRE1, where the applied protein concentrations were optimally chosen, this is not the case for the binding experiment through the stronger binder FKBP12. First of all, the applied excess of T with [Ttot] = 10 μM is roughly 20000-fold off of the proposed 100 times KT,1 threshold, which would correspond to 180 mM. Only under such excess conditions of T can the equilibrium of forming TL under the constraint that all ligand L is bound to T be reached to ensure that [Ltot] approaches the “ligand” concentration [TL]. […] If KC,2 is sufficiently high, the 20 nM deviation to correct for the protein concentration could be neglected. However, the resulting calculated value for KC,2 is 0.023 nM, accounting for the cooperativity α = 10,405 and KC,1 = 234 nM as derived by the MAPRE1 experiment. This value is far below the applied protein concentration of [Ctot] = 40 nM and makes it infeasible to estimate KC,2 from the EC50 of the %Cbound, ternary curve. Consequently, the EC50 shifts, meaning the apparent cooperativity, from monitoring the binding by the stronger binding protein C are diverging from the underlying intrinsic cooperativity α. […] The deviation of calculated (254 nM/24.2 nM = 10.5) and measured apparent cooperativity (254 nM/66 nM = 3.8) can be explained by a negative cooperativity induced by the His6-NTA tag of FKBP12. Studies to lower [Ctot] and identify a better position for the spectral shift tag on FKBP12 are ongoing (Figure 6a).
(§3) His-tagged FKBP12 was labeled using the His-Tag Labeling Kit RED-tris-NTA 2nd Generation (MO-L018; NanoTemper Technologies GmbH). The affinity between NTA dye and the His-tag of FKBP12 was determined as 7 nM. MAPRE1 was labeled using the Protein Labeling Kit RED-NHS 2nd Generation (MO-L011; NanoTemper Technologies GmbH). In brief, 10 µM of MAPRE1 was incubated with a 3-fold molar excess of fluorophore for 30 min. The unreacted fluorophore was removed by performing a size exclusion purification (B-column). Collecting the protein fraction yielded 1.8 µM labeled MAPRE1, with a degree of labeling of 0.8, as determined on a Nanodrop.
(§4) A 1:2 dilution series of all compounds (starting from the 10 mM stock concentration) was prepared in pure DMSO. Each concentration was diluted 25-fold with assay buffer (20 mM HEPES, pH 7.4, 150 mM NaCl, 1 mM DTT (all from Carl Roth, Karlsruhe, Germany), and 0.01% Pluronic F-127 (Sigma Aldrich, Taufkirchen, Germany)). Next, 10 µL from each of the prepared ligand dilutions was transferred into an empty well on a Dianthus Microwell Plate (DI-P001A). […]

[2] = target: T2, MAPRE1 in the presence of FKBP12 (Homo sapiens, UniProt P62942+Q15691); assay: Spectral shift target engagement assay, binding to MAPRE1 in the presence of 10 μM FKBP12 (ternary)
T2 construct: His-tag (N)
Description: as §1
Binding study through MAPRE1: MAPRE1 was labeled via lysines using an NHS-conjugated dye. The final concentration of MAPRE1NHS (referring to [Ttot]) was 5 nM. Compounds could be titrated up to a concentration of 200 μM (referring to [Ltot]). […] However more accuracy could only be achieved at higher ligand concentrations—ideally at full target saturation. However, this was experimentally infeasible due to assay conditions (i.e., the requirement of maintaining a certain DMSO concentration or avoiding solubility issues of the ligand). Although the determined KT,1 values of binding to MAPRE1 are only approximations, their relative ranking reflects the underlying differences in the affinity of the ligands L to MAPRE1. Performing these experiments in duplicates confirmed the high signal-to-noise ratio, i.e., there was no significant deviation between the two curves, indicating a high accuracy of the interpolated EC50 values. Due to the low [Ttot] = 5 nM, this value coincides with KT,1 (1.8 mM − 0.005 mM/2 ≈ 1.8 mM). […] Consequently, KT,2 corresponds to 173 nM and not 177.5 nM.
as §3
A 1:2 dilution series of all compounds (starting from the 10 mM stock concentration) was prepared in pure DMSO. Each concentration was diluted 25-fold with assay buffer (20 mM HEPES, pH 7.4, 150 mM NaCl, 1 mM DTT (all from Carl Roth, Karlsruhe, Germany), and 0.01% Pluronic F-127 (Sigma Aldrich, Taufkirchen, Germany)). Next, 10 µL from each of the prepared ligand dilutions was transferred into an empty well on a Dianthus Microwell Plate (DI-P001A). Another 10 µL of 2-fold concentrated labeled protein (either in the absence or the presence of 20 µM counter protein, both in assay buffer then yielded the final assay concentrations. Interaction measurements were prepared in duplicates for each condition. For binary interactions of compounds with MAPRE1, a final target concentration of 5 nM and a highest ligand concentration of 50 µM was prepared. For ternary interactions of compounds and MAPRE1 in the presence of 10 µM unlabeled FKBP12, the highest ligand concentration was increased to 200 µM, the highest concentration achievable while maintaining a constant 2% DMSO concentration. For all interactions measured via FKBP12, the target was prepared at a final concentration of 40 nM, supplemented with 5 nM NTA fluorophore. […]

[3] = tested on: FKBP12:R,S-SLF-X:MAPRE1 ternary complex; parameters: method as in PMID 40059881; conditions: TR-FRET proximity assay, reported earlier; cited from earlier work
MAPRE1 = target: T3, MAPRE1 (Homo sapiens, UniProt Q15691); assay: Spectral shift target engagement assay, binary binding to MAPRE1; conditions: up to [Ltot] = 200 μM
T3 construct: His-tag (N)
T3 sequence (Q15691 1-268): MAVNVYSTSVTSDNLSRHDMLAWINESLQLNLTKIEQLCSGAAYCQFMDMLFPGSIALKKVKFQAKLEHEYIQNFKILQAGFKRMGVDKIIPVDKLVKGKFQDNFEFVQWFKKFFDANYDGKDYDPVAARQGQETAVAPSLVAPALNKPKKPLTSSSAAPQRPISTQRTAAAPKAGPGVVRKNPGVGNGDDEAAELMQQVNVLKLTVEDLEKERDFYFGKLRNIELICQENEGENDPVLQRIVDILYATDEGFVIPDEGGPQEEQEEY

[4] = target: FKBP12 in the presence of MAPRE1 (Homo sapiens, UniProt P62942+Q15691); assay: Spectral shift target engagement assay, binding to FKBP12 in the presence of 10 μM MAPRE1 (ternary); conditions: 40 nM FKBP12-NTA, 10 μM MAPRE1; read-out: EC50 of the %Cbound, ternary curve (measured)
Description: as §1, §2, §3, §4

FKBP12 [5] = target: T1, FKBP12; parameters: method as in PMID 40059881; conditions: TR-FRET competitive binding assay from previous work; read-out: EC50_FKBP12; cited from earlier work

T1 sequence (P62942 whole entry, species assumed): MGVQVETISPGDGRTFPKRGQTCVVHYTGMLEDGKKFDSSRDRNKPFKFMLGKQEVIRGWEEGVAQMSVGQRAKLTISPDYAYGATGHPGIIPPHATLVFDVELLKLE
T2 sequence (P62942 whole entry, one chain of several): as the sequence (P62942 whole entry, species assumed) above
Chain of FKBP12 in the presence of MAPRE1 (P62942 whole entry, one chain of several): as the sequence (P62942 whole entry, species assumed) above

## COc1ccc(CCC2OC(=O)C3CCCCN3C(=O)C(=O)C(C)(C)COC(=O)C(C)NC(=O)C3CC(O)CN3C(=O)COc3cccc2c3)cc1OC (stereo not shown) [R,S-SLF-12]
FKBP12 [1]
  pKd: 7.89
[2]; 10 μM FKBP12
  ternary binding to MAPRE1: Neither binary nor ternary binding
[2]; [Ctot] = 10 μM FKBP12
  Ratio [Ctot]/KC,1: 769
[3]
  TR-FRET Recruitment Assay (%Amax): 0%
MAPRE1
  binary binding to MAPRE1 (%Tbound, binary): no binding; also recorded: Neither binary nor ternary binding
[4]
  pEC50: 7.52
FKBP12 [5]
  pEC50: 7.37

Source: publication PMC11989212, “Experimental Conditions to Retrieve Intrinsic Cooperativity α Directly from Single Binding Assay Data Exemplified by the Ternary Complex Formation of FKBP12, MAPRE1 and Macrocyclic Molecular Glues” (International Journal of Molecular Sciences, 2025)
